Source: article PMC9571953, “Discovery of New VEGFR-2 Inhibitors: Design, Synthesis, Anti-Proliferative Evaluation, Docking, and MD Simulation Studies” (Molecules, 2022)

Experiments:
[1] = test system: human tumor necrosis factor alpha (TNF-α); experiment: In vitro immunomodulatory assay, TNF-α; type: cell-based; settings: HCT-116 cells
Method: (§1) The immunomodulatory potentialities of congeners 6 and 7 on HCT-116 cells was also assayed. Two well-defined immunity markers, human tumor necrosis factor alpha (TNF-α), and interleukin 6 (IL6), were measured following the treatment with each compound. In addition, dexamethasone was co-assayed as a reference drug. A considerable reduction in both markers was noticed regarding the two compounds (Table 4).

interleukin 6 (IL6) = experiment: In vitro immunomodulatory assay, IL6; type: cell-based; settings: HCT-116 cells
Method: as §1

HCT-116 = experiment: In vitro anti-proliferative activity (MTT); type: cell-based; settings: Homo sapiens, mean ± S.D. of three experiments, read-out: In Vitro Cytotoxicity IC50 HCT-116
Method: (§2) The latter cells were selected owing to their VEGFR-2 overabundance.
(§3) Was conducted the experiment by the MTT procedure. In-depth discussions have been held in the Supplementary Data. […]
(§4) ✓ In vitro anti-proliferative activity against HepG-2 and HCT-116
(§5) The cells were cultured in RPMI-1640 medium supplemented with 10% fetal bovine serum (FBS), penicillin (100 unit /mL) and streptomycin sulphate (100µg/mL) at 37 °C in a 5% CO2 incubator.
(§6) Then, cells were dropped in 96-well plates at a density of 3-8 × 10^3 cells/well and incubated for two days in a 5% CO2 incubator at 37 °C. Then, the cells were treated with the synthesized compounds and the cell cultures were continued incubated for 24 h. However, Different concentrations of the compound under test (0.0, 5.0, 12.5, 25.0 and 50 mg/ml) were added to the cell monolayer. Then, (3-[4,5-dimethylthiazol-2-yl]- 2,5-diphenyltetrazolium bromide) MTT solution (20 µl, 5mg/mL) was added to each well and incubated for additional 4 h. The formed purple crystals of MTT-formazan were dissolved in 100 µl DMSO each well; the absorbance of each well was measured at 570 nm using a plate reader (EXL 800, USA). All compounds were tested three times. The relative cell viability in percentage was calculated. The results for IC50 values of the active compounds are […]
(§7) The data represented the mean of three independent experiments in triplicate and were expressed as means ± SD. […]

HepG-2 = experiment: In vitro anti-proliferative activity (MTT); type: cell-based; settings: Homo sapiens, HepG2, mean ± S.D. of three experiments, read-out: In Vitro Cytotoxicity IC50 HepG-2
Method: as §2, §3, §4, §5, §6, §7

Human VEGFR-2 = Human VEGFR-2 (Homo sapiens, UniProt P35968); experiment: In vitro VEGFR-2 enzyme inhibition assay (ELISA kit)
Method: The ability of the four synthesized congeners to inhibit the VEGFR-2 enzyme in HCT-116 cells was also evaluated.
✓ Assessment of VEGFR-2 inhibition

VEGFR-2 = settings: Reported nicotinamide VEGFR-2 inhibitor, Figure 2; no reference given; cited from earlier work
HCT-116 cells [2] = experiment: Flow cytometry cell cycle analysis (PI staining); type: cell-based; settings: HCT-116, 9.3 µM of compound 6, 48 h
Method: It was clear from the obtained results that member 6 arrested cell cycle progression at the phase G2-M, as it caused a significant elevation of the cell levels by 35.84% versus 12.91% accumulation of the control cells.
Were conducted propidium iodide (PI) staining and flow cytometry analysis.. In-depth discussions have been held in the Supplementary Data. […]
and were expressed as means ± SD. […]
HCT-116 cells were grown in six-well plates (each one contains 2 x 10^5 cells per well) containing 10% foetal bovine serum and incubated for 24 h at 37 °C and 5% CO2. The medium was replaced with (DMSO 1% v/v) containing the 9.3 µM of compound 6, then incubated for 48 h, collected and washed with cold phosphate buffered saline (PBS). After fixation of the collected cells with ice-cold […] ethanol (70%), the cells were rinsed with PBS then stained with the DNA fluorochrome PI, kept for 15 min at 37 °C. Then samples were analyzed with a FACS Caliber flow cytometer. […]

HCT-116 cells [3] = experiment: Annexin-V/propidium iodide apoptosis assay; type: cell-based; settings: HCT-116, 9.3 µM of compound 6, 48 h
Method: Both extrinsic and intrinsic apoptosis induced by compound 6 in HCT-116 cells was assayed through Annexin-V/propidium iodide staining assay. Marked induction of both early and late apoptosis was observed upon treating HCT-116 cells with 6. […]
Apoptotic activity of compound 6 was evaluated using Annexin V-FITC/PI apoptosis detection kit.
HCT-116 cells ([…]) were seeded and incubated with compound 6 for 48 h, trypsinized, collected and washed with phosphate-buffered saline (PBS) several times; […] cells were stained with […]
Annexin V fluorescein isothiocyanate (FITC) and counterstained with propidium iodide (PI) for 15 min at 37 °C in the dark using the apoptosis detection kit (BD Biosciences, San Jose, CA) according to the manufacturer's protocol. Then, Annexin V-FITC and PI binding were analyzed by a FACS […]
Crystal structure of VEGFR-2 [PDB ID: 2OH4, resolution: 2.07 Å] was obtained from Protein Data Bank. The docking investigation was accomplished using MOE 2014 software. At first, the crystal structure of VEGFR-2 was prepared by removing water molecules. Only one chain was retained beside the co-crystallized ligand. Then, the selected chain was protonated and subjected to minimization of energy process. Next, the active site of the target protein was defined.
Structures of the synthesized compounds and sorafenib (as reference standard) were drawn using ChemBioDraw Ultra 14.0 and saved as MDL-SD format. Such file was opened using MOE to display the 3D structures which were protonated and subjected to energy minimization. Formerly, validation of the docking process was performed by docking the co-crystallized ligand against the isolated pocket of active site. The produced RMSD value indicated the validity of process. Finally, docking of the tested compounds was done through the dock option inserted in compute window.
For each docked molecule, 30 docked poses were produced using ASE for scoring function and force field for refinement. The results of the docking process were then visualized using Discovery […]
ADMET descriptors (absorption, distribution, metabolism, excretion and toxicity) of the compounds were determined using Discovery studio 4.0. At first, the CHARMM force field was applied then the tested compounds were prepared and minimized according to the preparation of small molecule protocol. Then ADMET descriptors protocol was applied to carry out these studies.
The toxicity parameters of the synthesized compounds were calculated using Discovery studio 4.0.
Sorafenib was used as a reference drug. At first, the CHARMM force field was applied then the […]

Sequence of Human VEGFR-2 (P35968 20-1356): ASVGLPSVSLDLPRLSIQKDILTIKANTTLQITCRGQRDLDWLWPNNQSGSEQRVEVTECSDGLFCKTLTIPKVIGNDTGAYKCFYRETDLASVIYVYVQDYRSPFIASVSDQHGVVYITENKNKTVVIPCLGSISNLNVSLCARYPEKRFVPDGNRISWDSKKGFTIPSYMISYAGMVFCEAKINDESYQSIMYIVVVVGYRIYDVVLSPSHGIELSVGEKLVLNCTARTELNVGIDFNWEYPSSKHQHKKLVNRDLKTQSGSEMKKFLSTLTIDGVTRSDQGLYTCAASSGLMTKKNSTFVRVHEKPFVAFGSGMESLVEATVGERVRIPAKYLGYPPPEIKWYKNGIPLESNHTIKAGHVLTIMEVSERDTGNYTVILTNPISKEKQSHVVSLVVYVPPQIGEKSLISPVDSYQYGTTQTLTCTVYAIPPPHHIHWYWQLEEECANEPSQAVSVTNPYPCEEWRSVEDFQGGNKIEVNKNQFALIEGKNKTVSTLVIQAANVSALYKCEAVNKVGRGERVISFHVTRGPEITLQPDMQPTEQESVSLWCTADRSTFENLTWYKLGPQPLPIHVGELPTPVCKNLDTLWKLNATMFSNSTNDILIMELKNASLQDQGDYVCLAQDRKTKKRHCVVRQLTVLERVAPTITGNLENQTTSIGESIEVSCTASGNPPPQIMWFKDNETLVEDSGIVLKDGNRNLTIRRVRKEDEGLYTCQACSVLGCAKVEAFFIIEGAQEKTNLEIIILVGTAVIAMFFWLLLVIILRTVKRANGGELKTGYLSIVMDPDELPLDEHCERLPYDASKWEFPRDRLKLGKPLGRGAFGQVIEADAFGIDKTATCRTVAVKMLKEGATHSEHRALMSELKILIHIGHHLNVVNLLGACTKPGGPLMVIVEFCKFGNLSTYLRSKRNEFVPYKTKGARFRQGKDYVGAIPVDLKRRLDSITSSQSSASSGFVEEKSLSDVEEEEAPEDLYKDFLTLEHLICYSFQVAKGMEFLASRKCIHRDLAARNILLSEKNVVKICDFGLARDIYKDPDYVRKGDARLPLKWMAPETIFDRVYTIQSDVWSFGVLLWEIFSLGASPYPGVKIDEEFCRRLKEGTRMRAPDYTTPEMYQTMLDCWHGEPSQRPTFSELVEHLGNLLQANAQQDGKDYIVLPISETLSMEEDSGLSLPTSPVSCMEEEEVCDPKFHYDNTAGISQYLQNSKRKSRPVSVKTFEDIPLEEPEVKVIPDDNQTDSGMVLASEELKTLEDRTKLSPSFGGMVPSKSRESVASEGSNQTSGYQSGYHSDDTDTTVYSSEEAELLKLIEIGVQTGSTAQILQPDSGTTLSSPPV

**Q.** Which results are given for `C[C@@H]1C[C@H]2[C@@H]3CCC4=CC(=O)C=C[C@]4(C)[C@@]3(F)[C@@H](O)C[C@]2(C)[C@@]1(O)C(=O)CO` [Dexamethasone, reference compound]?
**A.** % Inhibition of TNF-α pg/mL [1]: 82.47%; % Inhibition of IL6 pg/mL (interleukin 6 (IL6)): 93.15%

**Q.** For `O=C(NN=Cc1c[nH]c2ccccc12)c1ccc(NC(=O)c2cccnc2)cc1` [Compound 8, N-{4-[2-((1H-Indol-3-yl)methylene)hydrazine-1-carbonyl]phenyl}nicotinamide], which IC50 (HCT-116) is on record?
**A.** 20.5 ± 0.052 µM

**Q.** What about the IC50 (HepG-2) of the same compound?
**A.** 16.03 ± 0.051 µM

**Q.** And the IC50 (Human VEGFR-2)?
**A.** 0.23 ± 0.0102 µM

**Q.** Which IC50 (VEGFR-2) does the source give for `C/C(=N\Nc1ccccc1)c1ccc(NC(=O)c2cccnc2)cc1` [II] here?
**A.** 0.0231 µM

**Q.** Which “% Inhibition of TNF-α pg/mL” value [1] does the source give for `O=C(NN=Cc1ccccc1O)c1ccc(NC(=O)c2cccnc2)cc1` [Compound 7, N-{4-[2-(2-Hydroxybenzylidene)hydrazine-1-carbonyl]phenyl}nicotinamide] here?
**A.** 60.54%

**Q.** And the IC50 (HCT-116)?
**A.** 15.9 ± 0.041 µM

**Q.** And the IC50 (HepG-2)?
**A.** 10.2 ± 0.035 µM

**Q.** And the “% Inhibition of IL6 pg/mL” value (interleukin 6 (IL6))?
**A.** 52.75%

**Q.** And the IC50 (Human VEGFR-2)?
**A.** 0.129 ± 0.00832 µM

**Q.** Which results are given for `CC(=NNC(N)=O)c1ccc(NC(=O)c2cccnc2)cc1` [Compound 10, N-{4-[1-(2-Carbamoylhydrazineylidene)ethyl]phenyl}nicotinamide]?
**A.** IC50 (HCT-116): 24.2 ± 0.06 µM; IC50 (HepG-2): 17.6 ± 0.048 µM; IC50 (Human VEGFR-2): 0.0636 ± 0.00331 µM

**Q.** What does the source list for `O=C(NN=Cc1ccc(Cl)cc1)c1ccc(NC(=O)c2cccnc2)cc1` [Compound 6, N-{4-[2-(4-Chlorobenzylidene)hydrazine-1-carbonyl]phenyl}nicotinamide]?
**A.** % Inhibition of TNF-α pg/mL [1]: 66.42%; IC50 (HCT-116): 9.3 ± 0.02 µM; IC50 (HepG-2): 7.8 ± 0.025 µM; % G0-G1 (HCT-116 cells [2]): 36.71%; % G2-M (HCT-116 cells [2]): 35.84%; % Pre-G1 (HCT-116 cells [2]): 16.93%; % S (HCT-116 cells [2]): 27.45%; % Inhibition of IL6 pg/mL (interleukin 6 (IL6)): 57.34%; Apoptosis Early (HCT-116 cells [3]): 5.78%; Apoptosis Late (HCT-116 cells [3]): 9.75%; Apoptosis Total (HCT-116 cells [3]): 16.93; Necrosis (HCT-116 cells [3]): 1.40%; IC50 (Human VEGFR-2): 0.0608 ± 0.00381 µM
